According to patent US4738979A, “α2 -blocking derivatives of imidazole” (G. D. Searle & Co., priority 1985, dated 1988):

Experiments:
[1] = acute toxicity after oral administration to mice (LD50); details: mouse, in vivo, 15 days mortality
Method: The acute toxicity of the compounds of the present invention was studied after oral administration to mice. The products to be tested, suspended in a 1% tragacanth gum mucilage, were administered by means of an intragastric probe to groups of three male mice which had fasted since the preceding day. The doses tested are a function of the effect observed and can vary from 3,000 to 3 mg/kg or less. The mortality was recorded for 15 days. The lethal dose for 50% of the animals (LD50) was calculated according to the method of J. Litchfield and F. Wilcoxon, J. Pharmacol. Exp. Ther., 96, 99 (1949) and expressed in mg/kg. The effect of the products on the behaviour of the animals is observed until 5 to 6 hours after the treatment indicated above and after 24 hours, using a method derived from that of S. Irwin, described by R. A. Turner, Screening Methods in Pharmacology, Chapter 3, pages 22-34, Academic Press, 1965. If anomalies are noted, the observation is prolonged and smaller doses are tested.

[2] = tested on: bicuculline-induced tonic extension in mice; experiment: protection against bicuculline-induced tonic extension in mice; type: in vivo; details: Mus musculus, iv, 3 hours prior to bicuculline 0.7 mg/kg i.v., read-out: Anticonvulsive effect (versus Bicuculline) (% Protection)
Method: In the second study the anti-convulsant effect of the compounds of the present invention was examined in two seizure models; bicuculline-induced tonic extension in mice and 3-mercaptopropionic acid (3-MPA)-induced tonic extension in mice.
In the bicuculline study, the ability of the compounds of the present invention to protect against tonic extension (involving rigidity) was evaluated as follows. Each test compound was administered to a group of ten mice at a dose of 10 mg/kg, 3 hours prior to the i.v. administration of bicuculline (0.7 mg/kg). Anticonvulsant activity in this test is expressed as percentage of animals tested. The results are given in Table II, column 6, and indicate that several compounds display significant anticonvulsive activity in this test. The anticonvulsant effect of the compounds has also been tested with respect to the tonic extension induced by 3-mercaptopropionic acid (120 mg/kg subcutaneously) in mice.

α1 -adrenergic receptors = experiment: binding to α1-adrenergic receptors on rat brain homogenates (3H-WB 4101); details: 1.6 nM 3H-WB 4101
Method: (§1) The activity of the compounds according to the invention with respect to binding of the α-adrenergic receptors was determined in vitro according to a method deriving from the works of B. R. Rouot et al., Life Sci., 25, 769 (1979) and of D. U'Prichard et al., Mol. Pharmacol., 13, 454 (1977). This method consists in measuring the binding to the receptor on rat brain homogenates, by marking by means of a specific tritriated ligand placed in competition with the product to be tested.
(§2) In the presenct case the binding to the α1 -adrenergic receptors was measured by means of 1.6 nM of ^3 H-WB 4101 and the binding to the α2 -adrenergic receptors by means of 0.7 nM of ^3 H-p. aminoclonidine, the non-specific binding being determined by 1,000 nM of phentolamine. The results are given in Table II, column 3, and are expressed in terms of percentage of inhibition of the specific binding of 10^-7 molar compound concentration.
(§3) (2) The specific binding is the total binding less the nonspecific
(§4) binding. The total binding is the binding in the absence of nonradioactiv
(§5) drug. The nonspecific binding is the binding in the presence of 1,000 nM
(§6) of phentolamine. The products of the invention are tested at a
(§7) concentration of 10^-7 molar.

α2 -adrenergic receptors = biological target: T1, α2 -adrenergic receptors (Rattus norvegicus, UniProt P22909); experiment: binding to α2-adrenergic receptors on rat brain homogenates (3H-p. aminoclonidine); details: 10^-7 M; for inhibition at 0.1 µM: rat brain homogenates, 0.7 nM 3H-p. aminoclonidine, read-out: % Inhibition of the Specific Binding at 10^-7 M for α2 Recep.; for affinity for α2 receptors (in words): in vitro binding assay
T1 construct: from tissue; host or cells: rat brain homogenates
T1 sequence (P22909 1-465): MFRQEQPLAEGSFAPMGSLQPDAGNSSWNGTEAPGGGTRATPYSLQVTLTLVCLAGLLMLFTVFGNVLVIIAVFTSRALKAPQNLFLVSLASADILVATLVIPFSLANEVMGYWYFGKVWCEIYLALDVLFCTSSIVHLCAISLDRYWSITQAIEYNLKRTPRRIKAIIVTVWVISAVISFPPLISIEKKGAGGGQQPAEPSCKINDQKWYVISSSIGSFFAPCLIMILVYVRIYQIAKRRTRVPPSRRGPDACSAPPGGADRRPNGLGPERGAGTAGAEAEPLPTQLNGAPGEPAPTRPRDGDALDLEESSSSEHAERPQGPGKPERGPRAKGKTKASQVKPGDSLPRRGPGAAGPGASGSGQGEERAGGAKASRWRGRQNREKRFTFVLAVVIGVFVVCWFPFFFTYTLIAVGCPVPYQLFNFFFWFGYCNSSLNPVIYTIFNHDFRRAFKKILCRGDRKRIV
Method: as §1, §2, §3, §4, §5, §6, §7

[3] = tested on: α2 adrenergic receptors of the central nervous system; experiment: inhibition of the antihypertensive action of clonidine in spontaneously hypertensive rats (SHR); type: in vivo, rat; details: 1 mg/kg p.o., clonidine 50 μg/kg s.c.
Method: In the first study, carried out upon unanaesthetized spontaneously hypertensive rats (SHR rats), the ability of the compounds of the present invention to inhibit the antihypertensive action of clonidine was determined.
The antihypertensive activity of clonidine results from an interaction with α2 adrenergic receptors of the central nervous system, i.e., central antihypertensive actions.
In this test, two groups of SHR rats are utilized as follows. In the first group, prior to subcutaneous administration of clonidine (50 μg/kg), the SHR rats are treated with the compound to be tested (1 mg/kg p.o.) dissolved in a saline vehicle. The second group (control group) of SHR rats are treated with the saline vehicle only, prior to subcutaneous administration of clonidine.
The arterial pressure is measured in the region of the median coccygeal artery according to the method of J. Roba, A. F. DeSchaepdrijver, Exp. Anim., 4, 147-162 (1971).
The results of this assay summarized in Table II, column 5, are expressed as a percentage of inhibition of the effect of clonidine.

[4] = tested on: peripheral vascular α2 receptors; experiment: inhibition of the pressor effect of BHT 920 in pithed rats; type: in vivo, rat; details: 1 mg/kg i.v., BHT 920 30 μg/kg i.v.
Method: The α2 antagonist activity of the compounds is evaluated by the inhibition of the pressor effect (blood pressure elevation), of a specific α2 agonist agent, 4H-Thiazolo[4,5-b]azetin-2-amine, 5,6,7,8-tetrahydro-6-(2-propenyl)-, dihydrochloride, designated as BHT 920 at a concentration of 30 μg/kg i.v.) according to a method described by J. C. Van Meel et al., J. Pharmacol. Exp. Ther., 219, 760-767 (1981).
The compound to be tested is administered at 1 mg/kg i.v. The ability of the compounds tested to antagonize the pressor effects of BHT 920 is determined and expressed as percentage of inhibition. Any direct hypertensive (=α2 agonist) activity of the compounds under test can likewise be detected.

Structure (SMILES) | LD50 at 360 h [1] | responders at 10 mg/kg [2] | % Inhibition of the Specific Binding at 10^-7 M for α1 Recep. (α1 -adrenergic receptors) | inhibition at 0.1 µM (α2 -adrenergic receptors) | affinity for α2 receptors (in words) (α2 -adrenergic receptors) | α2 Antagonist (% Inhibition of the Antihypertension of Clonidine) [3] | α2 antagonist activity, inhibition of pressor effect of BHT 920 (in words) [4]
c1ccc(C(Cc2c[nH]cn2)c2ccccc2)cc1 [Compound 1, 4(5)-(2,2-diphenylethyl)-imidazole] | 155 mg/kg | 0% | 17% | 89% | high affinity | 50% | very active as α2 antagonist agents
CC(c1c[nH]cn1)C(c1ccccc1)c1ccccc1 (centres unmarked) [Compound 4] | > 300 mg/kg | 40% | 4% | 5% |  | 68% | very active as α2 antagonist agents
Cc1cccc(C(Cc2c[nH]cn2)c2ccccc2)c1 (centres unmarked) [Compound 9, 4(5)-{[2-(3-methylphenyl)-2-phenyl]ethyl}imidazole] | 155 mg/kg | 20% | 4% | 85% | high affinity | 92% | very active as α2 antagonist agents
Cc1ccccc1C(Cc1c[nH]cn1)c1ccccc1 (centres unmarked) [Compound 12] | 155 mg/kg | 50% | 0% | 71% |  | 78% | very active as α2 antagonist agents
Clc1ccccc1C(Cc1c[nH]cn1)c1ccccc1 (centres unmarked) [Compound 13, 4(5)-{[2-(2-chlorophenyl)-2-phenyl]ethyl}imidazole] | 172 mg/kg | 20% | 7% | 81% | high affinity | 46% | very active as α2 antagonist agents
Fc1ccc(C(Cc2c[nH]cn2)c2ccccc2)cc1 (centres unmarked) [Compound 14, 4(5)-{[2-(4-fluorophenyl)-2-phenyl]ethyl}imidazole] | 155 mg/kg | 0% | 0% | 69% |  | 82% | very active as α2 antagonist agents
Fc1ccc(C(Cc2c[nH]cn2)c2ccccc2F)cc1 (centres unmarked) [Compound 15, 4(5)-{[2-(2-fluorophenyl)-2-(4'-fluorophenyl)]ethyl}imidazole] | 155 mg/kg | 0% | 7% | 77% |  | 75% | very active as α2 antagonist agents
Cc1ccc(C)c(C(Cc2c[nH]cn2)c2ccccc2)c1 (centres unmarked) [Compound 16] | > 300 mg/kg | 20% | 0% | 31% |  | 69% | 
COc1ccc(C(Cc2c[nH]cn2)c2ccccc2)cc1 (centres unmarked) [Compound 17, 4(5)-{[2-(4-methoxyphenyl)-2-phenyl]ethyl}imidazole] | 350 mg/kg | 10% | 6% | 78% |  | 26% | very active as α2 antagonist agents
Cc1ccc(C(Cc2c[nH]cn2)c2ccccc2)cc1 (centres unmarked) [Compound 21] | 350 mg/kg | 50% | 4% | 74% |  | 48% | very active as α2 antagonist agents
